One block for each compound: values may come before it.
Assays:
Kollagen-Neusynthese = test: Collagen neosynthesis: P1NP secreted into the medium of a fibroblast / 3D epidermis model co-culture; type: cell-based; conditions: for P1NP: Co-Kultur-System, P1NP in medium, unbehandelt = 107
Excerpt: Ein in der Kosmetik relevanter Parameter für die Anti-Aging-Leistung eines Produktes ist die Induktion der Kollagen-Neusynthese. […] Zum Nachweis der Kollagen-Neusynthese wurde ein Co-Kultur-System verwendet, das aus einer zweidimensionalen Fibroblasten-Kultur besteht, auf die in einem Insert ein dreidimensionales Epidermismodell aufgesetzt wurde. Über das Nährmedium kann ein Stoffaustausch zwischen den Fibroblasten und den Keratinocyten des Epidermismodells erfolgen. […] Als Kontrollen für die Syntheseinduktion wurden Retinsäure und Retinol eingesetzt.

CYP26A1 = test: RAMBA activity: change in CYP26A1 marker expression by qPCR in keratinocytes incubated with substance plus retinoic acid
Excerpt: Verschiedene kosmetische Wirkstoffe, die zur Stoffklasse der Azole gerechnet werden können, wurden auf eine mögliche RAMBA-Aktivität hin untersucht. Zu diesem Zweck wurden humane Keratinocyaten für 16 Stunden mit den entsprechenden Substanzen in Kombination mit Retinsäure inkubiert und anschließend mittels qPCR die Expressionsänderung des Markers CYP26A1 verfolgt. Das Enzym CYP26A1 bewirkt die Metabolisierung der Retinsäure und wird durch die Retinsäure selber induziert, wodurch eine Feedbak-Regulation der Retinsäurekonzentration in der Zelle ermöglicht wird. […] Tabelle 1

Compound: CC1=C(/C=C/C(C)=C/C=C/C(C)=C/C(=O)O)C(C)(C)CCC1 [Retinsäure, reference compound]
P1NP (Kollagen-Neusynthese; 5µM): 200 µg/mL
Rel. Expression CYP26A1 (CYP26A1; keratinocytes, 16 h, 0.01 µM): 37,6

Compound: CC1=C(/C=C/C(C)=C/C=C/C(C)=C/CO)C(C)(C)CCC1 [Retinol, reference compound]
P1NP (Kollagen-Neusynthese; 5µM): 146 µg/mL

Rel. Expression CYP26A1 (CYP26A1; 0,01% in combination with Retinsäure (RA, 10nM), humane Keratinocyten, 16 Stunden, qPCR, ethanol control = 1,0): 1,3
Compound: CC1=NN(c2ccccc2)C(=O)C1 [3-Methyl-1-phenyl-5-pyrazolon]
P1NP (Kollagen-Neusynthese; 0,01%): 129 µg/mL
Induktion der Kollagensynthese (Kollagen-Neusynthese; result in words on Tabelle 2): zeigen eine Induktion der Kollagensynthese
RAMBA-Aktivität (CYP26A1; comparison with Ketokonazol, result in words on Tabelle 1): in etwa die gleiche RAMBA-Aktivität wie Ketokonazol
Induktion von CYP26A1 (CYP26A1; in combination with Retinsäure, result in words on Tabelle 1): deutlich vermindert

— patent publication EP2601931A2, “Cosmetic use of 3-methyl-1-phenyl-5-pyrazolon” (Henkel AG&Co. KGAA, priority 2011, dated 2013)
